Measured values taken from patent US20140178898A1, “Method for Detecting Fat-Reducing Compounds” (National Central University, priority 2012, published 2014).

Assays:
Type in all cases: cell-based
3T3-L1 adipocytes [1] = assay: 2-deoxyglucose (2-DOG) uptake assay, IGF-II-stimulated glucose uptake
Method: (§1) In the first step (S1), which provides a clone of adipocytes to be cultured on a culture dish, the adipocytes are 3T3-L1 adipocytes (American Type Culture Collection, Manassas, Va.). 3T3-L1 adipocytes are differentiated from 3T3-L1 preadipocytes. To obtain the adipocytes, preadipocytes are seeded at a number of 6×10^4 cells per well on a sterile 12-well plate. After 3 and 5 days of the plating, the medium is changed and replaced with a new medium containing a differentiation agent, respectively. Day 0 of differentiating cells is set at the day when the differentiating agent is added in the beginning. […]
The first example of the present invention is to show a use of 2-deoxyglucose uptake assay for detecting the transportation activity of glucose transporter protein in the adipocytes (FIG. 2). […] Then, 500 μl of RadioImmunoPrecipitation Assay (RIPA) buffer is added for fracturing the cells; 450 μl of cell solution is collected to evenly mix with 4 ml of scintillation liquid in a vial for a detection of radioactivity through a β-counter.
(§2) This invention provides a second example for clarifying the time course effects of EGCG on the IGF-stimulated glucose uptake in adipocytes (FIG. 3). […] After the incubation, the radioactivity is measured to indicate the transportation activity of glucose transporter protein in the adipocytes. […]

3T3-L1 adipocytes [2] = assay: 2-deoxyglucose (2-DOG) uptake assay, EGCG alone
Method: (§3) In the first step (S1), which provides a clone of adipocytes to be cultured on a culture dish, the adipocytes are 3T3-L1 adipocytes (American Type Culture Collection, Manassas, Va.). 3T3-L1 adipocytes are differentiated from 3T3-L1 preadipocytes. To obtain the adipocytes, preadipocytes are seeded at a number of 6×10^4 cells per well on a sterile 12-well plate. After 3 and 5 days of the plating, the medium is changed and replaced with a new medium containing a differentiation agent, respectively. Day 0 of differentiating cells is set at the day when the differentiating agent is added in the beginning. The medium is the Dulbecco's Modified Eagle's Medium (DMEM) containing 10% fetal bovine serum (FBS), 100 U/ml of penicillin, and 100 μg/ml streptomycin. The differentiation agent is a cocktail solution containing a final concentration of 0.5 mM 3-Isobutyl-1-methylxanthine (IBMX), 5 μg/ml insulin, and 1 μM dexamethasone (DEX). After the 2-day incubation of the differentiation agent, the medium is changed to DMEM containing 10% FBS and 5 μg/ml insulin for an additional 4 days, and it is replaced with a new medium every 2 days. Day 6 differentiating cells are grown in DMEM containing 10% FBS for an additional 4 days. The medium is changed every 2 days. A total of 10 days is used for the process of differentiation to obtain the differentiated adipocytes and the cells are used for later experiments.
(§4) The first example of the present invention is to show a use of 2-deoxyglucose uptake assay for detecting the transportation activity of glucose transporter protein in the adipocytes (FIG. 2). This purpose is also to clarify the effect of different concentrations of EGCG on the IGF-I-induced and IGF-II-induced glucose uptake. At the first, the different concentrations of EGCG are added into the adipocytes, such as 1, 2, 5, 10, 20 and 50 μM. The duration of the EGCG pretreatment is defined as a first time and it is 120 minutes, wherein the first time period can range from 30 to 120 minutes, but it is not limited thereto. Then, the exposed time of 10 minutes to 10 nM IGF-I or 10 nM IGF-II is defined as a second time, wherein the second time can be 5 minutes shorter or last for 30 minutes, but it is not limited thereto. […] Then, 500 μl of RadioImmunoPrecipitation Assay (RIPA) buffer is added for fracturing the cells; 450 μl of cell solution is collected to evenly mix with 4 ml of scintillation liquid in a vial for a detection of radioactivity through a β-counter.
This invention provides a second example for clarifying the time course effects of EGCG on the IGF-stimulated glucose uptake in adipocytes (FIG. 3). […] After the incubation, the radioactivity is measured to indicate the transportation activity of glucose transporter protein in the adipocytes.

[3] = test system: glucose transporter 1 (GLUT1); assay: Western blotting of GLUT1 protein in adipocyte fractions; settings: EGCG in the presence and absence of IGF-I and IGF-II (FIGS. 5A, 6A)
Method: as §1, with “beginning. The medium is the Dulbecco's Modified Eagle's Medium (DMEM) containing 10% fetal bovine serum (FBS), 100 U/ml of penicillin, and 100 μg/ml streptomycin.” for “beginning.”
In the fourth step (S4), which collects the adipocytes for a detection of the expression level of at least one specific protein to be a reference value (i.e. an indicator) for reducing fat or for decreasing the glucose transport by the test compound, the specific proteins are glucose transporter 1 (GLUT1) and glucose transporter 4 (GLUT4) proteins (FIGS. 5 and 6). Levels of GLUT1 and GLUT4 protein expression in the total lysate, plasma membrane, and low-density microsome are analyzed by Western blotting. […]

[4] = test system: glucose transporter 4 (GLUT4); assay: Western blotting of GLUT4 protein in adipocyte fractions (translocation); settings: for GLUT4 protein levels in the plasma membrane of adipocytes: IGF at 10 nM (FIGS. 5B, 6B); for GLUT4 expression levels in the low-density microsome: IGF at 10 nM (FIGS. 5C, 6C)
Method: as §3
In the fourth step (S4), which collects the adipocytes for a detection of the expression level of at least one specific protein to be a reference value (i.e. an indicator) for reducing fat or for decreasing the glucose transport by the test compound, the specific proteins are glucose transporter 1 (GLUT1) and glucose transporter 4 (GLUT4) proteins (FIGS. 5 and 6). Levels of GLUT1 and GLUT4 protein expression in the total lysate, plasma membrane, and low-density microsome are analyzed by Western blotting. FIGS. 5A, 5B and 5C are presented when the culture medium is added with or without IGF-I; whereas, in FIGS. 6A, 6B and 6C, IGF-II is added to the culture medium.

3T3-L1 adipocytes [5] = assay: 2-deoxyglucose (2-DOG) uptake assay, IGF-I-stimulated glucose uptake; settings: for IGF-I-stimulated increases in levels of adipocyte glucose uptake: then 10 nM IGF-I 10 minutes (FIG. 2A)
Method: as §3, §4, §2

Substance: (−)-epigallocatechin gallate [EGCG]
- increase in the level of adipocyte glucose uptake induced by IGF-II (3T3-L1 adipocytes [1]; 0.5, 1, 2, and 4 hours after 20 μM EGCG pretreatment, 10 nM IGF-II): significantly reduced
- IGF-II-increased levels of glucose uptake in adipocytes (3T3-L1 adipocytes [1]; EGCG at 10, 20, and 50 μM, 2-hour pretreatment, 10 nM IGF-II (FIG. 2B)): suppress
- level of adipocyte glucose uptake (3T3-L1 adipocytes [2]; 20 μM EGCG alone, 0.5, 1, or 2 hours (FIG. 3A)): not
- level of adipocyte glucose uptake (3T3-L1 adipocytes [2]; 20 μM EGCG alone, 4 hours (FIG. 3A)): significantly altered
- adipocyte glucose uptake (3T3-L1 adipocytes [2]; EGCG alone at 50 μM, 2 hours (FIG. 2A)): significantly decreased
- glucose uptake in the adipocytes (3T3-L1 adipocytes [2]; EGCG alone at 1, 2, 5, 10, and 20 μM, 2 hours of treatment (FIG. 2A)): does not alter
- levels of GLUT1 protein in the total lysate of the adipocytes [3]: not altered
- levels of GLUT4 protein in the total lysate of the adipocytes ([4]; EGCG in the presence and absence of IGF-I and IGF-II (FIGS. 5A, 6A)): not altered
- IGF-increased levels of GLUT-4 protein in the plasma membrane ([4]; EGCG in the presence of IGF-I (FIG. 5B)): inhibits
- IGF-decreased levels of GLUT-4 protein in the low-density microsome ([4]; EGCG in the presence of IGF-I (FIG. 5C)): blocked
- IGF-increased levels of GLUT-4 protein in the plasma membrane ([4]; EGCG in the presence of IGF-II (FIG. 6B)): inhibits
- IGF-decreased levels of GLUT-4 protein in the low-density microsome ([4]; EGCG in the presence of IGF-II (FIG. 6C)): blocked
- translocation of GLUT4 from the cytosol to plasma membrane of the adipocytes induced by IGF treatment ([4]; FIGS. 5B, 5C, 6B and 6C): inhibited
- GLUT-4 protein levels in the low-density microsome ([4]; pretreatment with EGCG alone): does not change
- GLUT-4 protein levels in the plasma membrane ([4]; pretreatment with EGCG alone): does not change
- IGF-I-increased levels of adipocyte glucose uptake (3T3-L1 adipocytes [5]; 20 μM EGCG pretreatment for 0.5 hours, suppressive effect lasts for 4 hours, 10 nM IGF-I): inhibits
- IGF-I-increased level of adipocyte glucose uptake (3T3-L1 adipocytes [5]; 20 μM EGCG, 2-hour treatment, 10 nM IGF-I): decline to the corresponding level of glucose uptake to the control
- IGF-I-stimulated increases in levels of adipocyte glucose uptake (3T3-L1 adipocytes [5]; 2-hour pretreatment with 1, 2, or 5 μM EGCG): not
- IGF-I-stimulated increases in levels of adipocyte glucose uptake (3T3-L1 adipocytes [5]; 2-hour pretreatment with 10, 20, and 50 μM EGCG): suppresses

Substance: IGF-I: insulin-like growth factor I, added to adipocytes at 10 nM
- GLUT4 protein levels in the plasma membrane of adipocytes [4]: significantly increase
- GLUT4 expression levels in the low-density microsome [4]: decrease

Substance: IGF-II: insulin-like growth factor II, added to adipocytes at 10 nM
- GLUT4 protein levels in the plasma membrane of adipocytes [4]: significantly increase
- GLUT4 expression levels in the low-density microsome [4]: decrease
